Measured values as given in patent US11878955B1, “3,3′,3″-nitrilotris(1-(naphthalen-2-yloxy)propan-2-ol) as an eco-friendly insecticidal agent against Spodoptera littoralis (boisd.)” (priority 2023, dated 2024).
Converted amounts (≈) assume the structure as drawn.

Test system: Spodoptera littoralis larvae (2nd and 4th instars)
Test: Insecticidal bioassay screening (castor leaf dip)
Type: in vivo
Conditions: for LC50 (ppm): after 72 h of treatment; for Toxic ratio: 72 h, fenoxycarb's LC50 / the compound's LC50 × 100
Description: Five concentrations (200, 100, 50, 25, 12.5 ppm) were designed for this synthetic compound and the reference fenoxycarb compound as the dynamic ingredients based on ppm via diluting the commercial formulation.
In this experiment, castor leaves are immersed in each of the previously prepared concentrations of the components for 10 seconds and then left to dry for 60 minutes. Larvae of the second and fourth instars of each checked strain are prepared with treated leaves in gauze-covered glass containers for 72 hrs. An untreated control is made in which leaves are dipped in triton x-100 and distilled water only. Then the preserved leaves were removed & fresh, untreated leaves were provided for 72 hours. Three replicates (10 larvae each) were checked for each concentration. Daily inspection was carried out for all treatments and mortality percentages were recorded 3 days (72 hours) after treatment. The average mortality percentage was corrected employing Abbott's formula. The corrected mortality rate for each of the previously synthesized compounds is statistically calculated according to Finney (1970). Through this rate, the corresponding concentration test lines (LDP lines) are assessed. Fifty and ninety percent mortality are determined, and the regression values for the checked products were previously evaluated.

## CCOC(=O)NCCOc1ccc(Oc2ccccc2)cc1 [Fenoxycarb, reference compound]
2nd instar larvae of S. littoralis
  LC50 (ppm): 2.73 ppm
2nd instar larvae
  Toxic ratio: 100
4th instar larvae of S. littoralis
  LC50 (ppm): 43.231 ppm
4th instar larvae
  Toxic ratio: 100
Spodoptera littoralis, foliar
  LC50: 2.73 µg/mL (≈ 9.06 µM)
